Calls of active or inactive are those of the source. The rule behind the calls is not given here.
Tested on: CCRIS mutagenicity, Ames/micronucleus/aberration tests
Experiment: CCRIS mutagenicity studies
[1] = Test System: AMES SALMONELLA TYPHIMURIUM, Strain/Indicator: TA98, Metabolic Activation: NONE, Method: PREINCUBATION
[2] = Test System: AMES SALMONELLA TYPHIMURIUM, Strain/Indicator: TA98, Metabolic Activation: NONE, Method: STANDARD PLATE
[3] = Test System: AMES SALMONELLA TYPHIMURIUM, Strain/Indicator: TA98, Metabolic Activation: RAT, LIVER, S-9, AROCLOR 1254 (10%), Method: PREINCUBATION
[4] = Test System: AMES SALMONELLA TYPHIMURIUM, Strain/Indicator: TA98, Metabolic Activation: RAT, LIVER, S-9, AROCLOR 1254, Method: STANDARD PLATE
[5] = Test System: AMES SALMONELLA TYPHIMURIUM, Strain/Indicator: TA100, Metabolic Activation: NONE, Method: PREINCUBATION
[6] = Test System: AMES SALMONELLA TYPHIMURIUM, Strain/Indicator: TA100, Metabolic Activation: NONE, Method: STANDARD PLATE
[7] = Test System: AMES SALMONELLA TYPHIMURIUM, Strain/Indicator: TA100, Metabolic Activation: RAT, LIVER, S-9, AROCLOR 1254 (10%), Method: PREINCUBATION
[8] = Test System: AMES SALMONELLA TYPHIMURIUM, Strain/Indicator: TA100, Metabolic Activation: RAT, LIVER, S-9, AROCLOR 1254, Method: STANDARD PLATE
[9] = Test System: AMES SALMONELLA TYPHIMURIUM, Strain/Indicator: TA102, Metabolic Activation: NONE, Method: STANDARD PLATE
[10] = Test System: AMES SALMONELLA TYPHIMURIUM, Strain/Indicator: TA102, Metabolic Activation: RAT, LIVER, S-9, AROCLOR 1254, Method: STANDARD PLATE
[11] = Test System: AMES SALMONELLA TYPHIMURIUM, Strain/Indicator: TA1535, Metabolic Activation: NONE, Method: STANDARD PLATE
[12] = Test System: MOUSE LYMPHOMA, Strain/Indicator: L5178Y (TK+/TK-), Metabolic Activation: NONE, Method: SUSPENSION/PLATE
[13] = Test System: MOUSE LYMPHOMA, Strain/Indicator: L5178Y (TK+/TK-), Metabolic Activation: RAT, LIVER, S-9, AROCLOR 1254, Method: SUSPENSION/PLATE

SMILES: S=C1NCCN1
- mutagenic call (Test System: AMES SALMONELLA TYPHIMURIUM, Strain/Indicator: TA98, Metabolic Activation: HAMSTER, LIVER, S-9, AROCLOR 1254 (10%), Method: PREINCUBATION): inactive; negative
- mutagenic call [1]: inactive; negative
- mutagenic call [2]: inactive; negative
- mutagenic call [3]: inactive; negative
- mutagenic call [4]: inactive; negative
- mutagenic call (Test System: AMES SALMONELLA TYPHIMURIUM, Strain/Indicator: TA100, Metabolic Activation: HAMSTER, LIVER, S-9, AROCLOR 1254 (10%), Method: PREINCUBATION): inactive; negative
- mutagenic call [5]: inactive; negative
- mutagenic call [6]: inactive; negative
- mutagenic call [7]: inactive; negative
- mutagenic call [8]: inactive; negative
- mutagenic call [9]: inactive; negative
- mutagenic call [10]: inactive; negative
- mutagenic call (Test System: AMES SALMONELLA TYPHIMURIUM, Strain/Indicator: TA104, Metabolic Activation: NONE, Method: STANDARD PLATE): inactive; negative
- mutagenic call (Test System: AMES SALMONELLA TYPHIMURIUM, Strain/Indicator: TA104, Metabolic Activation: RAT, LIVER, S-9, AROCLOR 1254, Method: STANDARD PLATE): inactive; negative
- mutagenic call [11]: active; positive
- mutagenic call (Test System: AMES SALMONELLA TYPHIMURIUM, Strain/Indicator: TA1535, Metabolic Activation: S-9 MIX, Method: STANDARD PLATE): active; positive
- mutagenic call (Test System: AMES SALMONELLA TYPHIMURIUM, Strain/Indicator: TA1537, Metabolic Activation: HAMSTER, LIVER, S-9, AROCLOR 1254 (10%), Method: PREINCUBATION): inactive; negative
- mutagenic call (Test System: AMES SALMONELLA TYPHIMURIUM, Strain/Indicator: TA1537, Metabolic Activation: NONE, Method: PREINCUBATION): inactive; negative
- mutagenic call (Test System: AMES SALMONELLA TYPHIMURIUM, Strain/Indicator: TA1537, Metabolic Activation: RAT, LIVER, S-9, AROCLOR 1254 (10%), Method: PREINCUBATION): inactive; negative
- mutagenic call [12]: inactive; negative
- mutagenic call [13]: active; positive

SMILES: Nc1ccc(-c2ccc(N)c(Br)c2)cc1Br
- mutagenic call (Test System: AMES SALMONELLA TYPHIMURIUM, Strain/Indicator: TA98(1,8-DNP6), Metabolic Activation: NONE, Method: STANDARD PLATE): active; positive
- mutagenic call (Test System: AMES SALMONELLA TYPHIMURIUM, Strain/Indicator: TA98(1,8-DNP6), Metabolic Activation: S-9, Method: STANDARD PLATE): active; positive
- mutagenic call (Test System: AMES SALMONELLA TYPHIMURIUM, Strain/Indicator: TA98/1,8-DNP6, Metabolic Activation: HAMSTER, LIVER, S-9, Method: PREINCUBATION): active; positive
- mutagenic call (Test System: AMES SALMONELLA TYPHIMURIUM, Strain/Indicator: TA98/1,8-DNP6, Metabolic Activation: NONE, Method: PREINCUBATION): active; positive
- mutagenic call (Test System: AMES SALMONELLA TYPHIMURIUM, Strain/Indicator: TA98, Metabolic Activation: HAMSTER, LIVER, S-9, Method: PREINCUBATION): active; positive
- mutagenic call [1]: active; positive
- mutagenic call [2]: active; positive
- mutagenic call (Test System: AMES SALMONELLA TYPHIMURIUM, Strain/Indicator: TA98, Metabolic Activation: S-9, Method: STANDARD PLATE): active; positive
- mutagenic call [6]: inactive; negative
- mutagenic call (Test System: AMES SALMONELLA TYPHIMURIUM, Strain/Indicator: TA100, Metabolic Activation: S-9, Method: STANDARD PLATE): active; positive

SMILES: CCC(C)C(C)CO (stereo not drawn)
- mutagenic call (Test System: AMES SALMONELLA TYPHIMURIUM, Strain/Indicator: TA97, Metabolic Activation: HAMSTER, LIVER, S-9, AROCLOR 1254 (10 OR 30%), Method: PREINCUBATION): inactive; negative
- mutagenic call (Test System: AMES SALMONELLA TYPHIMURIUM, Strain/Indicator: TA97, Metabolic Activation: NONE, Method: PREINCUBATION): inactive; negative
- mutagenic call (Test System: AMES SALMONELLA TYPHIMURIUM, Strain/Indicator: TA97, Metabolic Activation: RAT, LIVER, S-9, AROCLOR 1254 (10%), Method: PREINCUBATION): inactive; negative
- mutagenic call (Test System: AMES SALMONELLA TYPHIMURIUM, Strain/Indicator: TA97, Metabolic Activation: RAT, LIVER, S-9, AROCLOR 1254 (30%), Method: PREINCUBATION): inactive; negative
- mutagenic call (Test System: AMES SALMONELLA TYPHIMURIUM, Strain/Indicator: TA98, Metabolic Activation: HAMSTER, LIVER, S-9, AROCLOR 1254 (10 OR 30%), Method: PREINCUBATION): inactive; negative
- mutagenic call [1]: inactive; negative
- mutagenic call [3]: inactive; negative
- mutagenic call (Test System: AMES SALMONELLA TYPHIMURIUM, Strain/Indicator: TA98, Metabolic Activation: RAT, LIVER, S-9, AROCLOR 1254 (30%), Method: PREINCUBATION): inactive; negative
- mutagenic call (Test System: AMES SALMONELLA TYPHIMURIUM, Strain/Indicator: TA100, Metabolic Activation: HAMSTER, LIVER, S-9, AROCLOR 1254 (10 OR 30%), Method: PREINCUBATION): inactive; negative
- mutagenic call [5]: inactive; negative
- mutagenic call [7]: inactive; negative
- mutagenic call (Test System: AMES SALMONELLA TYPHIMURIUM, Strain/Indicator: TA100, Metabolic Activation: RAT, LIVER, S-9, AROCLOR 1254 (30%), Method: PREINCUBATION): inactive; negative
- mutagenic call (Test System: AMES SALMONELLA TYPHIMURIUM, Strain/Indicator: TA1535, Metabolic Activation: HAMSTER, LIVER, S-9, AROCLOR 1254 (10 OR 30%), Method: PREINCUBATION): inactive; negative
- mutagenic call (Test System: AMES SALMONELLA TYPHIMURIUM, Strain/Indicator: TA1535, Metabolic Activation: NONE, Method: PREINCUBATION): inactive; negative
- mutagenic call (Test System: AMES SALMONELLA TYPHIMURIUM, Strain/Indicator: TA1535, Metabolic Activation: RAT, LIVER, S-9, AROCLOR 1254 (10%), Method: PREINCUBATION): inactive; negative
- mutagenic call (Test System: AMES SALMONELLA TYPHIMURIUM, Strain/Indicator: TA1535, Metabolic Activation: RAT, LIVER, S-9, AROCLOR 1254 (30%), Method: PREINCUBATION): inactive; negative

SMILES: C=CC(=O)OCCC
- mutagenic call [12]: active; positive. reevaluation of results: positive
- mutagenic call [13]: active; positive. reevaluation of results: positive

SMILES: CN=NNC
- mutagenic call [11]: active; positive

SMILES: [N-]=[N+]=NC[C@H]1O[C@H](O)[C@@H](O)[C@@H](O)[C@@H]1O
- mutagenic call [2]: inactive; negative
- mutagenic call [6]: active; positive

SMILES: CC12CCC(=O)NC1=CCC1C2CCC2(C)C(OC(=O)CCCc3ccc(N(CCCl)CCCl)cc3)CCC12 (stereo not drawn)
- mutagenic call [2]: inactive; negative
- mutagenic call [4]: inactive; negative
- mutagenic call [6]: active; positive
- mutagenic call [8]: active; positive
- mutagenic call [9]: inactive; negative
- mutagenic call [10]: inactive; negative
- mutagenic call [11]: active; positive
- mutagenic call (Test System: AMES SALMONELLA TYPHIMURIUM, Strain/Indicator: TA1535, Metabolic Activation: RAT, LIVER, S-9, AROCLOR 1254, Method: STANDARD PLATE): active; positive
- mutagenic call (Test System: AMES SALMONELLA TYPHIMURIUM, Strain/Indicator: TA1537, Metabolic Activation: NONE, Method: STANDARD PLATE): inactive; negative
- mutagenic call (Test System: AMES SALMONELLA TYPHIMURIUM, Strain/Indicator: TA1537, Metabolic Activation: RAT, LIVER, S-9, AROCLOR 1254, Method: STANDARD PLATE): inactive; negative

SMILES: CC1=CC(O)=NS(=O)(=O)O1
- mutagenic call (End Point: In vivo micronucleus, Test System: Peripheral blood normochromatic erythrocytes, Species: Mouse, Strain/Sex: FVB.N/TgN (v-Ha-ras) Tg.AC hemizygous/Female, Route: Oral): inactive; negative
- mutagenic call (End Point: In vivo micronucleus, Test System: Peripheral blood normochromatic erythrocytes, Species: Mouse, Strain/Sex: FVB.N/TgN (v-Ha-ras) Tg.AC hemizygous/Male, Route: Oral): inactive; negative
- mutagenic call (End Point: In vivo micronucleus, Test System: Peripheral blood normochromatic erythrocytes, Species: Mouse, Strain/Sex: p53 Haploinsufficient/ Female, Route: Oral): inactive; negative
- mutagenic call (End Point: In vivo micronucleus, Test System: Peripheral blood normochromatic erythrocytes, Species: Mouse, Strain/Sex: p53 Haploinsufficient/Male, Route: Oral): active; positive
- mutagenic call [12]: inactive; negative. reevaluation of results: negative
- mutagenic call [13]: inactive; negative. reevaluation of results: negative
